Assay results reported in patent publication US12077503B2, “Substituted cyclic amides and their use as herbicides” (FMC CORPORATION, priority 2015, dated 2024).

What was measured:
Assay type in all cases: in vivo
Kochia (Kochia scoparia) [1] = test: Test A postemergence; details: Bassia scoparia, post-emergence, 240 h
Summary of the method: (§1)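 Preemergence soil spray on seeded pots or post-emergence spray on 1–2 leaf plants, in loam–sand blend. Greenhouse ~10 d. Visual rating 0–100 against untreated plants.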

corn (Zea mays) = test: Test A postemergence; details: Zea mays, post-emergence, 240 h
Summary of the method: as §1

[2] = tested on: blackgrass (Alopecurus myosuroides); test: Test A postemergence; details: Alopecurus myosuroides, post-emergence, 240 h
Summary of the method: as §1

[3] = tested on: barnyardgrass (Echinochloa crus-galli); test: Test A postemergence; details: Echinochloa crus-galli, post-emergence, 240 h
Summary of the method: as §1

[4] = tested on: ragweed (common ragweed, Ambrosia elatior); test: Test A postemergence; details: Ambrosia artemisiifolia, post-emergence, 240 h
Summary of the method: as §1

[5] = tested on: wheat (Triticum aestivum); test: Test A postemergence; details: Triticum aestivum, post-emergence, 240 h
Summary of the method: as §1

[6] = tested on: ryegrass, Italian (Italian ryegrass, Lolium multiflorum); test: Test A postemergence; details: Lolium multiflorum, post-emergence, 240 h
Summary of the method: as §1

[7] = tested on: Galium (catchweed bedstraw, Galium aparine); test: Test A postemergence; details: Galium, post-emergence, 240 h
Summary of the method: as §1

[8] = tested on: pigweed (Amaranthus retroflexus); test: Test A postemergence; details: Amaranthus retroflexus, post-emergence, 240 h
Summary of the method: as §1

[9] = tested on: giant foxtail (Setaria faberii); test: Test A postemergence; details: Setaria faberi, post-emergence, 240 h
Summary of the method: as §1

rice (Oryra sativa) = test: Test B flooded paddy test; details: Oryza sativa, 250 g ai/ha, Flood; 0 to 100 scale where 0 is no effect and 100 is complete control; read-out: Rice plant response rating
Summary of the method: (§2)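 Percent control, visually estimated after 13–15 d in the greenhouse on a 0–100 basis, compares treated pots with untreated ones; compound was put into paddy water 3 cm above the soil when plants had two leaves.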

[10] = tested on: barnyardgrass (Echinochloa crus-galli); test: Test B flooded paddy test; details: Echinochloa crus-galli, 250 g ai/ha, Flood; 0 to 100 scale where 0 is no effect and 100 is complete control; read-out: Barnyardgrass plant response rating
Summary of the method: as §2

[11] = tested on: sedge, umbrella (small-flower umbrella sedge, Cyperus difformis); test: Test B flooded paddy test; details: Cyperus difformis, 250 g ai/ha, Flood; 0 to 100 scale where 0 is no effect and 100 is complete control; read-out: Sedge, Umbrella plant response rating
Summary of the method: as §2

[12] = tested on: ducksalad (Heteranthera limosa); test: Test B flooded paddy test; details: Heteranthera limosa, 250 g ai/ha, Flood; 0 to 100 scale where 0 is no effect and 100 is complete control; read-out: Ducksalad plant response rating
Summary of the method: as §2

Kochia (Kochia scoparia) [13] = test: Test A preemergence; details: Bassia scoparia, pre-emergence, 240 h, 0 to 100 scale where 0 is no effect and 100 is complete control, read-out: Kochia plant response rating
Summary of the method: as §1

[14] = tested on: barnyardgrass (Echinochloa crus-galli); test: Test A preemergence; details: Echinochloa crus-galli, pre-emergence, 240 h, 0 to 100 scale where 0 is no effect and 100 is complete control, read-out: Barnyardgrass plant response rating
Summary of the method: as §1

[15] = tested on: ragweed (common ragweed, Ambrosia elatior); test: Test A preemergence; details: Ambrosia artemisiifolia, pre-emergence, 240 h, 0 to 100 scale where 0 is no effect and 100 is complete control, read-out: Ragweed plant response rating
Summary of the method: as §1

[16] = tested on: ryegrass, Italian (Italian ryegrass, Lolium multiflorum); test: Test A preemergence; details: Lolium multiflorum, pre-emergence, 240 h, 0 to 100 scale where 0 is no effect and 100 is complete control, read-out: Ryegrass, Italian plant response rating
Summary of the method: as §1

[17] = tested on: pigweed (Amaranthus retroflexus); test: Test A preemergence; details: Amaranthus retroflexus, pre-emergence, 240 h, 0 to 100 scale where 0 is no effect and 100 is complete control, read-out: Pigweed plant response rating
[18] = tested on: giant foxtail (Setaria faberii); test: Test A preemergence; details: Setaria faberi, pre-emergence, 240 h, 0 to 100 scale where 0 is no effect and 100 is complete control, read-out: Foxtail, Giant plant response rating
Summary of the method: as §1

[19] = 125 g ai/ha, preemergence, approx. 10 d

`O=C(Nc1ccc(F)c(F)c1F)[C@H]1C(=O)N(O)CC[C@@H]1c1ccc(C(F)(F)F)cc1` [Compound 1108] was tested, and the pest or weed control at 125 g/ha (Kochia (Kochia scoparia) [1]; 125 g ai/ha, postemergence, visual injury on 0 to 100 scale (0 no effect, 100 complete control), approx. 10 d, read-out: Kochia plant response rating) was 0%, the pest or weed control at 31 g/ha (Kochia (Kochia scoparia) [1]; Postemergence, 31 g ai/ha, visual injury after approx. 10 d, 0 to 100 scale, 0 no effect, 100 complete control, read-out: Plant response rating, Kochia) was 0% and the plant injury at 125 g/ha (corn (Zea mays); 125 g ai/ha, postemergence, visual injury on 0 to 100 scale (0 no effect, 100 complete control), approx. 10 d, read-out: Corn plant response rating) was 0%. The Corn plant response rating (crop injury, 0 = no effect, 100 = complete kill) at 31 g/ha (corn (Zea mays); Postemergence, 31 g ai/ha, visual injury after approx. 10 d, 0 to 100 scale, 0 no effect, 100 complete control) was 0%, the pest or weed control at 125 g/ha ([2]; 125 g ai/ha, postemergence, visual injury on 0 to 100 scale (0 no effect, 100 complete control), approx. 10 d, read-out: Blackgrass plant response rating) was 0% and the pest or weed control at 31 g/ha ([2]; Postemergence, 31 g ai/ha, visual injury after approx. 10 d, 0 to 100 scale, 0 no effect, 100 complete control, read-out: Plant response rating, Blackgrass) was 0%. It also gave a pest or weed control at 125 g/ha ([3]; 125 g ai/ha, postemergence, visual injury on 0 to 100 scale (0 no effect, 100 complete control), approx. 10 d, read-out: Barnyardgrass plant response rating) of 0%, a pest or weed control at 31 g/ha ([3]; Postemergence, 31 g ai/ha, visual injury after approx. 10 d, 0 to 100 scale, 0 no effect, 100 complete control, read-out: Plant response rating, Barnyardgrass) of 0% and a pest or weed control at 125 g/ha ([4]; 125 g ai/ha, postemergence, visual injury on 0 to 100 scale (0 no effect, 100 complete control), approx. 10 d, read-out: Ragweed plant response rating) of 0%. For the same compound, the pest or weed control at 31 g/ha ([4]; Postemergence, 31 g ai/ha, visual injury after approx. 10 d, 0 to 100 scale, 0 no effect, 100 complete control, read-out: Plant response rating, Ragweed) was 0%, the plant injury at 125 g/ha ([5]; 125 g ai/ha, postemergence, visual injury on 0 to 100 scale (0 no effect, 100 complete control), approx. 10 d, read-out: Wheat plant response rating) was 0% and the plant injury at 31 g/ha ([5]; Postemergence, 31 g ai/ha, visual injury after approx. 10 d, 0 to 100 scale, 0 no effect, 100 complete control, read-out: Plant response rating, Wheat) was 0%. The pest or weed control at 125 g/ha ([6]; 125 g ai/ha, postemergence, visual injury on 0 to 100 scale (0 no effect, 100 complete control), approx. 10 d, read-out: Ryegrass, Italian plant response rating) was 0%, the pest or weed control at 31 g/ha ([6]; Postemergence, 31 g ai/ha, visual injury after approx. 10 d, 0 to 100 scale, 0 no effect, 100 complete control, read-out: Plant response rating, Ryegrass, Italian) was 0% and the pest or weed control at 125 g/ha ([7]; 125 g ai/ha, postemergence, visual injury on 0 to 100 scale (0 no effect, 100 complete control), approx. 10 d, read-out: Galium plant response rating) was 0%. For the same compound, the pest or weed control at 31 g/ha ([7]; Postemergence, 31 g ai/ha, visual injury after approx. 10 d, 0 to 100 scale, 0 no effect, 100 complete control, read-out: Plant response rating, Galium) was 0%, the pest or weed control at 125 g/ha ([8]; 125 g ai/ha, postemergence, visual injury on 0 to 100 scale (0 no effect, 100 complete control), approx. 10 d, read-out: Pigweed plant response rating) was 0% and the pest or weed control at 31 g/ha ([8]; Postemergence, 31 g ai/ha, visual injury after approx. 10 d, 0 to 100 scale, 0 no effect, 100 complete control, read-out: Plant response rating, Pigweed) was 0%. It also gave a pest or weed control at 125 g/ha ([9]; 125 g ai/ha, postemergence, visual injury on 0 to 100 scale (0 no effect, 100 complete control), approx. 10 d, read-out: Foxtail, Giant plant response rating) of 0%, a pest or weed control at 31 g/ha ([9]; Postemergence, 31 g ai/ha, visual injury after approx. 10 d, 0 to 100 scale, 0 no effect, 100 complete control, read-out: Plant response rating, Foxtail, Giant) of 0% and a pest or weed control at 250 g/ha (rice (Oryra sativa)) of 20%. For the same compound, the pest or weed control at 250 g/ha [10] was 40%, the pest or weed control at 250 g/ha [11] was 75% and the pest or weed control at 250 g/ha [12] was 85%. It also gave a pest or weed control at 31 g/ha (Kochia (Kochia scoparia) [13]; 31 g ai/ha, Preemergence) of 0%, a pest or weed control at 125 g/ha (Kochia (Kochia scoparia) [13]; [19]) of 0% and a pest or weed control at 31 g/ha ([14]; 31 g ai/ha, Preemergence) of 0%. It also gave a pest or weed control at 125 g/ha [14, 19] of 0%, a pest or weed control at 31 g/ha ([15]; 31 g ai/ha, Preemergence) of 0% and a pest or weed control at 125 g/ha [15, 19] of 0%. The pest or weed control at 31 g/ha ([16]; 31 g ai/ha, Preemergence) was 0%, the pest or weed control at 125 g/ha [16, 19] was 0% and the pest or weed control at 31 g/ha ([17]; 31 g ai/ha, Preemergence) was 0%. The pest or weed control at 125 g/ha [17, 19] was 0%, the pest or weed control at 31 g/ha ([18]; 31 g ai/ha, Preemergence) was 0% and the pest or weed control at 125 g/ha [18, 19] was 0%.
